{"source": "patent US8258257B2", "about": "(The Regents of the University of California, priority 2008, dated 2012)", "key": {"GST-Cldn4.Ecl2 (R4)": {"molecular_target": "GST-Cldn4.Ecl2 (R4) (Mus musculus, UniProt O35054)", "type": "binding", "conditions": "for Kd: read-out: calculated equilibrium affinity (KD)"}, "Cldn-4 Mutant R4 [1]": {"molecular_target": "T1, Cldn-4 Mutant R4 (Mus musculus, UniProt O35054)", "T1 construct": "made in house; host or cells: E. coli BL21 (pLysS)", "T1 sequence (O35054 117-181, change not shown)": "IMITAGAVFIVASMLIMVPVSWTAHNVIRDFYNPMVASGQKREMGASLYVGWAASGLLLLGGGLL", "experiment": "Kd (1/s)", "description": "(§1) Table printed on a drawing sheet, FIGURE 3\n(§2) Title: Binding Kinetics of Various Peptides to Cldn-4 Mutant R4\nHead of the field: Kd (1/s)\n(§3) The processed specific binding sensorgrams are presented for each ligand. The 50 nM analyte concentration was repeated twice to confirm reproducibility. The binding kinetics was analyzed by “BIAevalution 3.1” software with 1:1 (langmuir) binding mode, and the binding constants were summarized in the table.\n(§4) First copying reader's note: Panel B of FIGURE 3; panel A is a sensorgram plot and is left out.\n(§5) Where the first naming reader finds the target: table_title: Binding Kinetics of Various Peptides to Cldn-4 Mutant R4"}, "Cldn-4 Mutant R4 [2]": {"molecular_target": "T1, Cldn-4 Mutant R4", "experiment": "KD (nM)", "description": "as §1, §2\nHead of the field: KD (nM)\nas §3, §4, §5"}, "Cldn-4 Mutant R4 [3]": {"molecular_target": "T1, Cldn-4 Mutant R4"}, "[4]": {"molecular_target": "Claudin-4 Ecl2 domain (synthetic biotinylated peptide) (Mus musculus, UniProt O35054)", "type": "binding"}, "GST protein": {"molecular_target": "GST protein (Schistosoma japonicum, UniProt P08515)", "sequence (P08515 whole entry, looked up)": "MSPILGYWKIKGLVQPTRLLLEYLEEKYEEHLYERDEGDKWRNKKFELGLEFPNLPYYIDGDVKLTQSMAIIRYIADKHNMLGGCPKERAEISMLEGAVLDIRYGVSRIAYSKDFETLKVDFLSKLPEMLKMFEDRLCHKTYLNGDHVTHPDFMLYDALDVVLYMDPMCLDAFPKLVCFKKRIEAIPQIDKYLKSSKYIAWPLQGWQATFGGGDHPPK", "type": "binding"}}, "note": "Entries after “also recorded” stand apart in the source; their conditions may differ. Where no end group is shown, it is not given here."}
{"sequence": "APWTEHSYYLSL [CC4P-13R]", "values": [{"measurement": "off-rate", "setting": "GST-Cldn4.Ecl2 (R4)", "result": "slowest off-rate"}]}
{"sequence": "SPWSEPAYTLAP [CC4P-5] [listing 1 of 2 here]", "values": [{"measurement": "KD (stated in words)", "setting": "GST-Cldn4.Ecl2 (R4)", "result": "nanomolar level"}, {"measurement": "specific binding to Cldn4 Ecl2 (GST-Cldn4.R4)", "setting": "GST-Cldn4.Ecl2 (R4)", "result": "clear specific binding; also recorded: significant affinity"}]}
{"sequence": "APWTEHSYYLSL [CC4P-13] [listing 1 of 2 here]", "values": [{"measurement": "Kd", "setting": "Cldn-4 Mutant R4 [1]", "result": 0.000742, "unit": "s⁻¹"}]}
{"sequence": "ASNSSYSGNYSIL [Cpe30 MT3]", "values": [{"measurement": "specific binding to Cldn4 Ecl2 (GST-Cldn4.R4)", "setting": "GST-Cldn4.Ecl2 (R4)", "result": "did not bind"}]}
{"sequence": "APWTEHSYYLSL [CC4P-13] [listing 2 of 2 here]", "values": [{"measurement": "KD (stated in words)", "setting": "GST-Cldn4.Ecl2 (R4)", "result": "nanomolar level"}, {"measurement": "specific binding to Cldn4 Ecl2 (GST-Cldn4.R4)", "setting": "GST-Cldn4.Ecl2 (R4)", "result": "clear specific binding; also recorded: orientation of biotinylation did not affect the binding; also recorded: significant affinity"}]}
{"sequence": "NSSYSGNYPYSILFQKF [Cpe17, NSSYSGNYPYSILFQKF]", "values": [{"measurement": "off-rate", "setting": "GST-Cldn4.Ecl2 (R4)", "result": "slightly slower off-rate"}, {"measurement": "on-rate", "setting": "GST-Cldn4.Ecl2 (R4)", "result": "similar"}, {"measurement": "specific binding to Cldn4 Ecl2 (GST-Cldn4.R4)", "setting": "GST-Cldn4.Ecl2 (R4)", "result": "strong specific binding"}, {"measurement": "Kd", "setting": "GST-Cldn4.Ecl2 (R4)", "result": 1.57, "unit": "nM"}, {"measurement": "Kd", "setting": "Cldn-4 Mutant R4 [2]", "result": 2.12, "unit": "nM"}]}
{"sequence": "SLDAGQYVLVMKANSSYSGNYPYSILFQKF [Cpe30] [listing 1 of 2 here]", "values": [{"measurement": "Ka", "setting": "Cldn-4 Mutant R4 [3]", "result": 130000, "unit": "M⁻¹ s⁻¹"}]}
{"sequence": "SSYSGNYPYSIL [Cpe30 MT1]", "values": [{"measurement": "specific binding to Cldn4 Ecl2 (GST-Cldn4.R4)", "setting": "GST-Cldn4.Ecl2 (R4)", "result": "no specific binding; also recorded: did not bind"}]}
{"sequence": "VTHKTCPPACWP [CC4P-2]", "values": [{"measurement": "specific binding to Cldn4 Ecl2 (GST-Cldn4.R4)", "setting": "GST-Cldn4.Ecl2 (R4)", "result": "no specific binding"}]}
{"sequence": "SPWSEPAYTLAP [CC4P-5] [listing 2 of 2 here]", "values": [{"measurement": "Ka", "setting": "Cldn-4 Mutant R4 [3]", "result": 315000, "unit": "M⁻¹ s⁻¹"}, {"measurement": "Kd", "setting": "Cldn-4 Mutant R4 [1]", "result": 0.00141, "unit": "s⁻¹"}]}
{"sequence": "SLDAGQYVLVMKANSSYSGNYPYSILFQKF [Cpe30] [listing 2 of 2 here]", "values": [{"measurement": "on-rate", "setting": "GST-Cldn4.Ecl2 (R4)", "result": "similar"}, {"measurement": "specific binding to Cldn4 Ecl2 (GST-Cldn4.R4)", "setting": "GST-Cldn4.Ecl2 (R4)", "result": "optimal binding activity; also recorded: strong specific binding"}, {"measurement": "Kd", "setting": "GST-Cldn4.Ecl2 (R4)", "result": 2.56, "unit": "nM"}, {"measurement": "binding to lariat Ecl2 (cyclic, disulfide bond)", "setting": "[4]", "result": "failed to bind"}, {"measurement": "binding to linear B-Ecl2 peptide", "setting": "[4]", "result": "No specific binding"}, {"measurement": "binding to tethered Ecl2 (B-Ecl2-B, biotin at both termini)", "setting": "[4]", "result": "failed to bind"}, {"measurement": "binding to GST protein only", "setting": "GST protein", "result": "did not bind"}]}
